This is an account of results in the Deep4Chem optical property database.

The data set can be described thus: solvent given as SMILES.

For the setting “in ClCCl”, `CC(C)(C)c1ccc(-n2c(-c3ccc(N(c4ccc(-c5ccc(N(c6ccc(-c7nc8c9ccccc9c9ccccc9c8n7-c7ccc(C(C)(C)C)cc7)cc6)c6ccc(-c7nc8c9ccccc9c9ccccc9c8n7-c7ccc(C(C)(C)C)cc7)cc6)cc5)cc4)c4ccc(-c5nc6c7ccccc7c7ccccc7c6n5-c5ccc(C(C)(C)C)cc5)cc4)cc3)nc3c4ccccc4c4ccccc4c32)cc1` had an absorption maximum of 377 nm.

As to `CCCCC1(c2ccccc2)Nc2ccccc2N=C1c1ccccc1` (stereo unspecified), the absorption maximum (in ClC(Cl)Cl) is recorded as 386 nm.

On to `CC(=O)Nc1ccccc1C(=O)OC1CC(C)CCC1C(C)C` (stereo unspecified), for which the absorption maximum stood at 315 nm (in C1CCCCC1); 310 nm (in CC#N); 310 nm (in CCO); 307 nm (in CO); 313 nm (in Cc1ccccc1); 312 nm (in ClC(Cl)Cl). In addition, the absorption maximum (in ClCCl) stood at 310 nm.

In the case of `Cc1cc2cc(N3c4ccccc4Oc4ccccc43)ccc2c(=O)o1`, the absorption maximum (in Cc1ccccc1) came to 395 nm.

Turning to `[O-][n+]1c(-c2ccc(Br)cc2)cc(N2CCOCC2)nc1/C=C/c1ccccc1`, the absorption maximum (in ClCCl) stood at 445 nm.

In turn, `N#Cc1nn(-c2ccc(F)cc2)nc1N1CCCC1` had an absorption maximum (in CC#N) of 340 nm.

As to `N#CC1=C(c2ccc(-c3cccs3)s2)CCC1`, the absorption maximum runs as follows: (in C1CCOC1) 364 nm; (in CC#N) 362 nm; (in CCCCCC) 360 nm; (in CCO) 366 nm; (in OCCOCCO) 367 nm; (in c1ccncc1) 368 nm.

On to `CC(C)(C)c1ccc2c(c1)c1cc3c4cc(C(C)(C)C)ccc4c4c5c6ccc(C(C)(C)C)cc6c6cc7c8cc(C(C)(C)C)ccc8c8c2c1c(c34)c(c78)c65`, for which the absorption maximum stood at 542.15 nm (in CCCCCC), 541.57 nm (in CCOCC) and 545.85 nm (in Cc1ccccc1).

`CC(C)(C)c1ccc(-c2ccc(-c3c4c(nc5ccccc35)-c3cc5c(cc3CC4)-c3nc4ccccc4c(-c4ccc(-c6ccc(C(C)(C)C)cc6)cc4)c3CC5)cc2)cc1` gave an absorption maximum (in ClC(Cl)Cl) of 376 nm.

Under “in ClC(Cl)Cl”, `CCOC(=O)/C=C/C1=C(c2ccc(C)cc2)C2=Nc3c(-c4ccc(C)cc4)c(Br)c(-c4ccc(C)cc4)n3[B-](F)(F)[N+]2=C1c1ccc(C)cc1` registered an absorption maximum of 666 nm.

In the case of `CCCCCCc1ccc(-n2c3c4cccc(OC)c4nc(-c4ccc(OC)cc4)c3c3c2c2c(-c4ccc(OC)cc4)nc4c(OC)cccc4c2n3-c2ccc(CCCCCC)cc2)cc1`, the absorption maximum (in ClC(Cl)Cl) is listed as 317 nm.

On to `CCN1C(=CC2=C([O-])C(=CC3=[N+](CC)c4ccccc4C3(C)C)C2=O)C(C)(C)c2ccccc21`, for which the absorption maximum (in CO) was determined as 628 nm, the absorption maximum (in ClC(Cl)Cl) is 635 nm and the absorption maximum (in ClCCl) was 637 nm.

Take `CCOC(=O)/C=C/c1cc2ccc(O)cc2oc1=O`: the absorption maximum (in CCO) was found to be 367 nm.

For the setting “in O”, `COc1ccc2ccc(O)cc2c1` showed an absorption maximum of 325 nm.

Consider `CCC1(CC)c2cc(B(c3c(C)cc(C)cc3C)c3c(C)cc(C)cc3C)ccc2-c2ccc(N(c3ccccc3)c3ccc4c(c3)C(CC)(CC)c3cc(B(c5c(C)cc(C)cc5C)c5c(C)cc(C)cc5C)ccc3-4)cc21`, for which the absorption maximum is, setting by setting: (in C1CCOC1) 422 nm; (in CC#N) 417 nm; (in CC(C)=O) 418 nm; (in CCCCCC) 422 nm; (in CN(C)C=O) 422 nm; (in Cc1ccccc1) 424 nm. Further, the absorption maximum (in ClC(Cl)Cl) is given as 422 nm.

In turn, `CN(C)c1ccc(C2=Nc3scc(-c4ccccc4)[n+]3[B-](F)(F)O2)cc1` displayed an absorption maximum (in C1CCOC1) of 406 nm, an absorption maximum (in CC#N) of 406 nm, an absorption maximum (in Cc1ccccc1) of 409 nm and an absorption maximum (in ClCCl) of 411 nm.

`CCC(C)(C)c1ccc2c(c1)C(CC)(CC)c1cc(-c3ccc4c(c3)C(CC)(CC)c3cc(C(C)(C)CC)ccc3-4)ccc1-2` gave an absorption maximum (in C1CCCCC1) of 331 nm.
